The results in this text go back to ChEMBL document CHEMBL3585313, “Fragment-Based Discovery of a Small Molecule Inhibitor of Bruton's Tyrosine Kinase” (J Med Chem, 2015).

SMILES strings stand for the structures. Some results are limits rather than exact numbers.

The target of data set [1] is T1, Tyrosine-protein kinase BTK (Homo sapiens, UniProt Q06187).
Description: Inhibition of BTK in human Raji cells after 30 mins by HTRF assay
In data set [2] the target is Tyrosine-protein kinase Lck (Homo sapiens, UniProt P06239). The experiment in a line: Inhibition of Lck (unknown origin).
The nature of data set [3]: Volume of distribution at steady state in Sprague-Dawley rat at 1 mg/kg, iv and 4 mg/kg, po. Format: ADME, organism-based. As to conditions: in vivo, read-out: Vdss.
The subject of data set [4] is LLC-PK1. The data set is described as follows: Efflux ratio of apparent permeability across apical to basolateral side over basolateral to apical side in pig LLC-PK1 cells expressing MDR1. Format: ADME, cell-based, Sus scrofa.
In data set [5] the test system is MDR1. The experiment in a line: Apparent permeability across apical to basolateral side in pig LLC-PK1 cells expressing MDR1. Format: ADME, cell-based, Sus scrofa.
Data set [6] has as its target T1, Tyrosine-protein kinase BTK. The experiment in a line: Inhibition of BTK autophosphorylation in human Raji cells after 30 mins by Phos-Y223 Btk HTRF assay. In kind it is cell-based.
The nature of data set [7]: Clearance in Sprague-Dawley rat at 1 mg/kg, iv. Format: ADME, organism-based. As to conditions: in vivo.
Data set [8] can be described thus: Hepatic extraction ratio in human liver microsomes at 1 uM up to 30 mins by LC-MS/MS analysis. In kind it is ADME. The note with it: read-out: ERH.
Data set [9] is described as follows: Oral bioavailability in Sprague-Dawley rat at 4 mg/kg. In kind it is ADME, organism-based. The note with it: in vivo.
A short description of data set [10]: Hepatic extraction ratio in rat liver microsomes at 1 uM up to 30 mins by LC-MS/MS analysis. In kind it is ADME. The note with it: read-out: ERH. For orientation: Liver microsomes are vesicles of endoplasmic reticulum, rich in cytochrome P450 enzymes.
The nature of data set [11]: Hepatic extraction ratio in Sprague-Dawley rat at 1 mg/kg, iv. In kind it is ADME, organism-based. The note with it: in vivo, read-out: ERH.
The nature of data set [12]: Half life in Sprague-Dawley rat at 1 mg/kg, iv and 4 mg/kg, po. In kind it is ADME, organism-based. The note with it: in vivo.
For data set [13], the target named is T2, Tyrosine-protein kinase Fgr (Homo sapiens, UniProt P09769). The data set is described as follows: Inhibition of human recombinant Fgr.
Target sequence in this assay (P09769 whole entry): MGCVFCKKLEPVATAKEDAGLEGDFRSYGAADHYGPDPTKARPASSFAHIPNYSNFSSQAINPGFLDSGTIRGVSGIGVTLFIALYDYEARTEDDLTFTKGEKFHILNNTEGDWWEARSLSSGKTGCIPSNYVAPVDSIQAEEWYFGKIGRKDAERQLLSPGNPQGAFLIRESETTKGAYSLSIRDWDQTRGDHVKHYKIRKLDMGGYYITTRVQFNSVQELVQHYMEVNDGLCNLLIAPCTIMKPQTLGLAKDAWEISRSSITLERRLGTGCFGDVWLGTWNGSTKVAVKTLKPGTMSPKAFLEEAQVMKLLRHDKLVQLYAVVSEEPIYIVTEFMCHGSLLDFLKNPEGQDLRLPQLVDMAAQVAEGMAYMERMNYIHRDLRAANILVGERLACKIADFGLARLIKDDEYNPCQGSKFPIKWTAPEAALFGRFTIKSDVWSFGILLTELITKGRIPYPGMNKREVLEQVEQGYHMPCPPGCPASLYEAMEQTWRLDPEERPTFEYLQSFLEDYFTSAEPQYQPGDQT
The nature of data set [14]: Volume of distribution at steady state in beagle dog at 1 mg/kg, iv and 10 mg/kg, po. Format: ADME, organism-based, Canis lupus familiaris. As to conditions: in vivo, read-out: Vdss.
The target in data set [15] is T2, Tyrosine-protein kinase Fgr. The data set is described as follows: Inhibition of human recombinant Fgr at 1 uM.
Data set [16] concerns the target Cytoplasmic tyrosine-protein kinase BMX (Homo sapiens) (UniProt P51813). The experiment in a line: Inhibition of human recombinant Bmx at 1 uM.
For data set [17], the target named is Activated CDC42 kinase 1 (Homo sapiens, UniProt Q07912). The data set is described as follows: Inhibition of human recombinant TNK2 by LanthaScreen Binding assay. In general terms: In TR-FRET formats the signal depends on donor and acceptor labels being close together.
Data set [18] has as its target T3, Tyrosine-protein kinase Lyn (Homo sapiens, UniProt P07948). The data set is described as follows: Inhibition of human recombinant LynB.
Target sequence in this assay (P07948 whole entry): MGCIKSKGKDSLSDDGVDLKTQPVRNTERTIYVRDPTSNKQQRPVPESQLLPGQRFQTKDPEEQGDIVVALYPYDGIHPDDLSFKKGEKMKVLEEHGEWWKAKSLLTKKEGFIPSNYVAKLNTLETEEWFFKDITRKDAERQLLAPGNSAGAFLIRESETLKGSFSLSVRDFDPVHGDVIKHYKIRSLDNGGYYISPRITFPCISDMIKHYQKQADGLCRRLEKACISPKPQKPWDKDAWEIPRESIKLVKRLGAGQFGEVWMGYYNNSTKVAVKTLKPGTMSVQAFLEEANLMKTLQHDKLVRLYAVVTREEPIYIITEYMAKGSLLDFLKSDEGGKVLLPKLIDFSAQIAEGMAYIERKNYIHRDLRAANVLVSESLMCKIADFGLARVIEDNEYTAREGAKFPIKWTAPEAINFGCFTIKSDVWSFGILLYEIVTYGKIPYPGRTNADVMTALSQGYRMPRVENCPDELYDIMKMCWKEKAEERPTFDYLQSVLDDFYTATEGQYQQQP
Data set [19] has as its target Tyrosine-protein kinase Yes (Homo sapiens) (UniProt P07947). The data set is described as follows: Inhibition of human recombinant Yes at 1 uM.
Data set [20] addresses T3, Tyrosine-protein kinase Lyn. The note with it: 1 uM.
Target sequence in this assay (P07948 2-512 limits assumed): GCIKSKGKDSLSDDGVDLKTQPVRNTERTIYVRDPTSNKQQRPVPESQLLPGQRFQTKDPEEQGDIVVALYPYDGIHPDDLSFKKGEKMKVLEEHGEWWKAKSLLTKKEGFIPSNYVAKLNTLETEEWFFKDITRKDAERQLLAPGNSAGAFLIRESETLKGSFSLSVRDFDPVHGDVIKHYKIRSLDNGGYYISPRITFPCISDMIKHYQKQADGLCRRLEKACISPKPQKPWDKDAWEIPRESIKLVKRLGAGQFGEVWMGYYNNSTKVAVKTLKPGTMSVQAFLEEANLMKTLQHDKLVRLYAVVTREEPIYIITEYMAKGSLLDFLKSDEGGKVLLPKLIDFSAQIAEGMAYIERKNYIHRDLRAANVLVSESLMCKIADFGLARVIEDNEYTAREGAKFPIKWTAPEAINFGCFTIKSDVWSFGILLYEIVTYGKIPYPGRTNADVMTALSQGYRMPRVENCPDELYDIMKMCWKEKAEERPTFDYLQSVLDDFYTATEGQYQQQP
Description: Inhibition of human recombinant LynA at 1 uM
The nature of data set [21]: Volume of distribution at steady state in C57/bl6 mouse at 1 mg/kg, iv and 10 mg/kg, po. In kind it is ADME, organism-based. The note with it: in vivo, read-out: Vdss.
Data set [22] addresses T4, Tyrosine-protein kinase HCK (Homo sapiens, UniProt P08631). The data set is described as follows: Inhibition of human recombinant Hck.
The nature of data set [23]: Oral bioavailability in C57/bl6 mouse at 10 mg/kg. As to conditions: in vivo. Format: ADME, organism-based.
In data set [24] the test system is Rattus norvegicus. The experiment in a line: Antiarthritic activity in po dosed bovine type-2 collagen-induced po dosed female Lewis rat arthritic model assessed as increase in paw volume AUC (0 to 24 hrs) administered as qd starting on day 12 continued through day 21. Format: functional, organism-based.
Data set [25] has as its target T5, Proto-oncogene tyrosine-protein kinase Src (Homo sapiens, UniProt P12931). The data set is described as follows: Inhibition of human recombinant Src.
Data set [26] has as its target T6, Tyrosine-protein kinase Blk (Homo sapiens, UniProt P51451). The data set is described as follows: Inhibition of human recombinant Blk.
Target sequence in this assay (P51451 whole entry): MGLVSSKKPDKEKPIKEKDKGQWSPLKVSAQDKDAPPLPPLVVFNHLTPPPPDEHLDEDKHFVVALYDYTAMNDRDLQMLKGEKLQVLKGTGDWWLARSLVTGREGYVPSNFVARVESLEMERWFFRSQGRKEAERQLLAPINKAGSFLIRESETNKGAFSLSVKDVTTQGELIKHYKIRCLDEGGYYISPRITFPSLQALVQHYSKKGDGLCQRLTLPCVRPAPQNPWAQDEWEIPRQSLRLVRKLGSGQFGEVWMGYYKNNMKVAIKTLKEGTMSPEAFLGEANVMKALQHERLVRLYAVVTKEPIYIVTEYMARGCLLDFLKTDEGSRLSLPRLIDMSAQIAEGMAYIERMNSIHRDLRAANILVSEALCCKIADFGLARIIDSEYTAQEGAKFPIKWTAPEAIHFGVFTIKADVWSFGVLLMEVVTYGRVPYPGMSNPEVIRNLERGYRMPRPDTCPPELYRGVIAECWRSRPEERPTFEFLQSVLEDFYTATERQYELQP
The nature of data set [27]: Half life in C57/bl6 mouse at 1 mg/kg, iv and 10 mg/kg, po. In kind it is ADME, organism-based. As to conditions: in vivo.
Data set [28] relates to Rattus norvegicus. The experiment in a line: Antiarthritic activity in po dosed bovine type-2 collagen-induced po dosed female Lewis rat arthritic model assessed as inhibition of paw volume administered as qd starting on day 12 continued through day 21. In kind it is functional, organism-based.
A short description of data set [29]: Oral bioavailability in beagle dog at 10 mg/kg. Format: ADME, organism-based, Canis lupus familiaris. As to conditions: in vivo.
A short description of data set [30]: Half life in beagle dog at 1 mg/kg, iv and 10 mg/kg, po. Format: ADME, organism-based, Canis lupus familiaris. As to conditions: in vivo.
The target of data set [31] is LIM domain kinase 1 (Homo sapiens, UniProt P53667). The data set is described as follows: Inhibition of human recombinant LIMK1 by LanthaScreen Binding assay.
Data set [32] is described as follows: Clearance in beagle dog at 1 mg/kg, iv and 10 mg/kg, po. In kind it is ADME, organism-based, Canis lupus familiaris. The note with it: in vivo.
The target of data set [33] is T4, Tyrosine-protein kinase HCK. The experiment in a line: Inhibition of human recombinant Hck at 1 uM.
For data set [34], the target named is Tyrosine-protein kinase Fyn (Homo sapiens) (UniProt P06241). The data set is described as follows: Inhibition of human recombinant Fyn at 1 uM.
Data set [35] concerns the target Tyrosine-protein kinase Tec (Homo sapiens) (UniProt P42680). The data set is described as follows: Inhibition of human recombinant Tec at 1 uM.
Data set [36] addresses T7, Tyrosine-protein kinase FRK (Homo sapiens, UniProt P42685). The data set is described as follows: Inhibition of human recombinant Frk.
Data set [37] addresses T3, Tyrosine-protein kinase Lyn. The note with it: 1 uM. This is another data set of the same source.
Target sequence in this assay (P07948 2-512 limits assumed): as the sequence (P07948 2-512 limits assumed) above
Description: Inhibition of human recombinant LynB at 1 uM
For data set [38] the target is unchanged. The data set is described as follows: Inhibition of human recombinant LynA.
Target sequence in this assay (P07948 whole entry): as the sequence (P07948 whole entry) above
Data set [39] deals with Cytoplasmic tyrosine-protein kinase BMX (Homo sapiens, UniProt P51813). The experiment in a line: Inhibition of human recombinant Bmx.
Data set [40] is described as follows: Clearance in C57/bl6 mouse at 1 mg/kg, iv and 10 mg/kg, po. Format: ADME, organism-based. As to conditions: in vivo.
For data set [41], the target named is T6, Tyrosine-protein kinase Blk. The data set is described as follows: Inhibition of human recombinant Blk at 1 uM.
The target in data set [42] is Activin receptor type-1 (Homo sapiens, UniProt Q04771). The data set is described as follows: Inhibition of human recombinant ALK2 by LanthaScreen Binding assay.
In data set [43] the target is Tyrosine-protein kinase Tec (Homo sapiens, UniProt P42680). The experiment in a line: Inhibition of human recombinant Tec.
Data set [44] concerns the target T7, Tyrosine-protein kinase FRK. The data set is described as follows: Inhibition of human recombinant Frk at 1 uM.
Data set [45] concerns the target T5, Proto-oncogene tyrosine-protein kinase Src. The data set is described as follows: Inhibition of human recombinant Src at 1 uM.

T1 sequence (Q06187 whole entry): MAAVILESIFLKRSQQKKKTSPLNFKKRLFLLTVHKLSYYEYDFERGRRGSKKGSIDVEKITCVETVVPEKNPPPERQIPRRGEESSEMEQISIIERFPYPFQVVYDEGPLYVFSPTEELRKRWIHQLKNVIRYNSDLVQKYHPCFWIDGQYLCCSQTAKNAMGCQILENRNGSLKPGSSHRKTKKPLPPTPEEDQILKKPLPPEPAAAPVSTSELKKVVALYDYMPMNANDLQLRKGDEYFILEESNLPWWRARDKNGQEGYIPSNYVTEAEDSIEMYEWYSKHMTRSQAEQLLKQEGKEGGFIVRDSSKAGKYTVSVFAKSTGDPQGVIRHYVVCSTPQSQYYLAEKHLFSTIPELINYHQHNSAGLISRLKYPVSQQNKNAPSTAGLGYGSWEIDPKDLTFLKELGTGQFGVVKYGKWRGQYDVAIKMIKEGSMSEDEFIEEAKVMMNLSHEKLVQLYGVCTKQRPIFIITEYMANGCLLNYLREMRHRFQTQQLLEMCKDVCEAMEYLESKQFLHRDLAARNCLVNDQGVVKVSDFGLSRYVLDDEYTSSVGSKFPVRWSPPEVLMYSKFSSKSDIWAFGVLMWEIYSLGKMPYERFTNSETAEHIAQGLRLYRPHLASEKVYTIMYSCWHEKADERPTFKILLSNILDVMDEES
Sequence of Tyrosine-protein kinase Lck (P06239 whole entry): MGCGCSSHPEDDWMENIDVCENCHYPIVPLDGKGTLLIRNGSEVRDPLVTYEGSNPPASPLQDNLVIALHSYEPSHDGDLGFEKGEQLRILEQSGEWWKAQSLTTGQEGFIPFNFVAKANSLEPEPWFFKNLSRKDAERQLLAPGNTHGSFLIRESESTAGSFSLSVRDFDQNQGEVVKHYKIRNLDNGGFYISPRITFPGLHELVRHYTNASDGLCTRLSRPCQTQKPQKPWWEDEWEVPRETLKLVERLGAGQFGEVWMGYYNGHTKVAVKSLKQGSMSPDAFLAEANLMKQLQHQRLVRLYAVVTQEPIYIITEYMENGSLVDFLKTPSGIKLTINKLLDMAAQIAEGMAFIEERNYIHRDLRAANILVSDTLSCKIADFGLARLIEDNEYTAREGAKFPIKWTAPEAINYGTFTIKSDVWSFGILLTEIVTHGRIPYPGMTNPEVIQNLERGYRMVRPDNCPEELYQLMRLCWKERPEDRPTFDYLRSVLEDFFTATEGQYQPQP
T7 sequence (P42685 whole entry): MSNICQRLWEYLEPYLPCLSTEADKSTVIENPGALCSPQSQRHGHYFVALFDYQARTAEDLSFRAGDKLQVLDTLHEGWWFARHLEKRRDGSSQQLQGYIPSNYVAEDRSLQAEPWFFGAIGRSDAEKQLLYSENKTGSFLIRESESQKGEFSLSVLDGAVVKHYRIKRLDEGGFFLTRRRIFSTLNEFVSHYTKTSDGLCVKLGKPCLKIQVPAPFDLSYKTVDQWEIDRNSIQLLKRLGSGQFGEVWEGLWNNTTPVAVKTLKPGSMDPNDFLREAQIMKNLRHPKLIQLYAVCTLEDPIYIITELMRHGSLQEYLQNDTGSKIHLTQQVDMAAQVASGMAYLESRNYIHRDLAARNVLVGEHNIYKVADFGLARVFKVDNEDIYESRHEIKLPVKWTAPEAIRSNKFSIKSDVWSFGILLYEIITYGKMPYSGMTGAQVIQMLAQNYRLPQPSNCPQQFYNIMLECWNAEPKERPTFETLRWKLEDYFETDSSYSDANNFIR
T5 sequence (P12931 2-536 limits assumed): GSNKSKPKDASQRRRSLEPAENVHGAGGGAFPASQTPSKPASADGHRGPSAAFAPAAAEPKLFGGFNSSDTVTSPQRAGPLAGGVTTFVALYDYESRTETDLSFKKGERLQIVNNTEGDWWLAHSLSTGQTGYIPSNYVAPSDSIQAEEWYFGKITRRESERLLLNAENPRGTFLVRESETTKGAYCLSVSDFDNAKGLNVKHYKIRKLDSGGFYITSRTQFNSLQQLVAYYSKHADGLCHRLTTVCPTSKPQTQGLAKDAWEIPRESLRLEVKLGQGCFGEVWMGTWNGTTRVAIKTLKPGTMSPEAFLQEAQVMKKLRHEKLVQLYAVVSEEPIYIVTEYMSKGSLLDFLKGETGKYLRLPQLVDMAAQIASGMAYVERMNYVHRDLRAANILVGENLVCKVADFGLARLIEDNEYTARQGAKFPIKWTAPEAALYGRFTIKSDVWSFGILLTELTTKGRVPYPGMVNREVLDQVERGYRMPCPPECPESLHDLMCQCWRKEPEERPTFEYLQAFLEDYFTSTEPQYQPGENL
Sequence of Cytoplasmic tyrosine-protein kinase BMX (P51813 whole entry): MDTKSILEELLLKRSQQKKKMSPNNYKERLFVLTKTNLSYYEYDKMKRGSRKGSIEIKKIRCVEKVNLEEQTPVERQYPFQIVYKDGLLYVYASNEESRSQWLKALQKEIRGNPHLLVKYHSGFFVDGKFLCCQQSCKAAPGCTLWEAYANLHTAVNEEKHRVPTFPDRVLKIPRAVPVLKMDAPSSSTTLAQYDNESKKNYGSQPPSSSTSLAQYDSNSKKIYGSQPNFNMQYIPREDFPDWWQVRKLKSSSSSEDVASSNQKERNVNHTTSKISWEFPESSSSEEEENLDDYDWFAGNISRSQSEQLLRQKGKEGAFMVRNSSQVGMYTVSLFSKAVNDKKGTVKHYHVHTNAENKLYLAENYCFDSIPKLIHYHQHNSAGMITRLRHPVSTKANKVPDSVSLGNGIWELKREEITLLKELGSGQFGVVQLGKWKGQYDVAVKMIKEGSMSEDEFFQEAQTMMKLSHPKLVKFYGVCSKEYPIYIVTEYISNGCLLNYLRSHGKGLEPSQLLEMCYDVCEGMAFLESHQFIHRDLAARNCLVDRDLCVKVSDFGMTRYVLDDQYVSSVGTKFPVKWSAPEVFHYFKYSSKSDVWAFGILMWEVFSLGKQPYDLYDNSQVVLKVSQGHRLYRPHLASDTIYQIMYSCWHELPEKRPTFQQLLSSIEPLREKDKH

In general, IC50 refers to the concentration that gives 50% inhibition. As to `NC(=O)c1nnc2ccccc2c1N`, the IC50 in data set [1] is 3.5 µM; in [2], 38 µM.

Broadly, the Papp A→B is how fast a substance crosses the layer from the apical side. As a reminder, the EC50 is the concentration at which the effect is half-maximal. Lower therefore signals higher potency in that assay. The bioavailability is the share of a dose that reaches the circulation, judged against a reference dose that is usually intravenous. One may read the half-life as the time needed for the level to fall by half in the phase considered. In the case of `Cn1cc(-c2cccc3c(N)c(C(N)=O)nnc23)cn1`, in data set [3], the Vd was 0.7 L/kg. For the same compound, the Ratio in [4] is listed as 0.7. The apical-to-basolateral permeability (Papp A→B) in data set [5] came out at 288 nm/s. The same compound had an EC50 in [6] above 50 µM. Further, the clearance in [7] is 1.32 L/h/kg. Further, the hepatic extraction ratio at 0.5 h, 1 µM in data set [8] was found to be 0.77; in data set [10], 0.5. The half-inhibitory concentration (IC50) in [1] worked out at 240 µM; in [2], 13 µM. For the same compound, the bioavailability in data set [9] amounted to 35%. The hepatic extraction ratio in data set [11] was determined as 0.3. The compound further had a half-life in [12] of 1.3 h.

By inhibition is commonly meant the percentage by which the read-out fell short of the control. For `Cc1cc2cn[nH]c2cc1-c1cccc2c(N)c(C(N)=O)nnc12`, the IC50 in data set [13] turned out to be 0.041 µM; in data set [17], 0.011 µM; in data set [18] it was 0.054 µM; in [22], 0.099 µM; in data set [25], 0.067 µM; in data set [26] it was 0.036 µM. Besides, the concentration for half-maximal inhibition (IC50) in data set [31] was 0.012 µM; in data set [36], 0.041 µM; in [38], 0.082 µM; in data set [39], 0.036 µM; in data set [42], 0.007 µM; in data set [43], 0.057 µM. Moreover, the Vd in data set [14] worked out at 1.1 L/kg; in [3], 1.5 L/kg; in [21] it was 0.8 L/kg. The inhibition worked out at 94% in [15]; 91% in [16]; 73% in [19]; 82% in [20]; 82% in data set [33]; 53% in [34]. In addition, the inhibition in data set [35] is 92%; in [37] it was 85%; in data set [41], 89%; in [44] it was 88%; in data set [45] it was 87%. Further, the results for the bioavailability in data set [23], in [29] and in [9] were 93%, 89% and 70%, respectively. Moreover, the Activity entry in data set [24] and in data set [28] was “Dose-dependent effect” in each case. In addition, the half-life in [27] was 1.6 h; in [30] it was 4.1 h; in [12], 1.6 h. The clearance in data set [7] was 0.72 L/h/kg; in data set [32] it was 0.522 L/h/kg; in data set [40], 1.08 L/h/kg.

The compound `NC(=O)c1nnc2c(-c3ccc4cc[nH]c4c3)cccc2c1N` registered a 50% inhibitory concentration (IC50) in data set [2] of 6.4 µM.

`NC(=O)c1nnc2c(-c3ccc4cn[nH]c4c3)cccc2c1N`: the IC50 in data set [2] stood at 1.3 µM.
